Assay results reported in the supplement of paper PMC11451515.

Tested on: SEM cells
Assay: cell viability relative to DMSO control; higher = less cytotoxic
Conditions: 48 h
How it was run: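 In 1536-well plates, 5 μl of leukemia cells were seeded per well: 500 cells/well for NOMO1 or SEM and 1000 cells/well for P12-Ichikawa. Each line had first been adapted for at least four passages in each medium. Library compounds in DMSO were pin-dosed at 11 threefold concentrations between 47 μM and 0.79 nM, and CellTiter-Glo One luminescence was read after 48 h at 37°C. Viability is a per-plate percentage relative to DMSO wells, with cell-free wells as background.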

[1] = HPLM + 10% dialyzed FBS, 0.000781 µM
[2] = HPLM + 10% dialyzed FBS, 0.00234 µM
[3] = HPLM + 10% dialyzed FBS, 0.00702 µM
[4] = HPLM + 10% dialyzed FBS, 0.0211 µM
[5] = HPLM + 10% dialyzed FBS, 0.0632 µM
[6] = HPLM + 10% dialyzed FBS, 0.19 µM
[7] = HPLM + 10% dialyzed FBS, 0.569 µM
[8] = HPLM + 10% dialyzed FBS, 1.71 µM
[9] = HPLM + 10% dialyzed FBS, 5.12 µM
[10] = HPLM + 10% dialyzed FBS, 15.4 µM
[11] = HPLM + 10% dialyzed FBS, 46.1 µM
[12] = RPMI 5 mM glucose + 10% FBS, 0.000781 µM
[13] = RPMI 5 mM glucose + 10% FBS, 0.00234 µM
[14] = RPMI 5 mM glucose + 10% FBS, 0.00702 µM
[15] = RPMI 5 mM glucose + 10% FBS, 0.0211 µM
[16] = RPMI 5 mM glucose + 10% FBS, 0.0632 µM
[17] = RPMI 5 mM glucose + 10% FBS, 0.19 µM
[18] = RPMI 5 mM glucose + 10% FBS, 0.569 µM
[19] = RPMI 5 mM glucose + 10% FBS, 1.71 µM
[20] = RPMI 5 mM glucose + 10% FBS, 5.12 µM
[21] = RPMI 5 mM glucose + 10% FBS, 15.4 µM
[22] = RPMI 5 mM glucose + 10% FBS, 46.1 µM
[23] = RPMI 5 mM glucose + 10% dialyzed FBS, 0.000781 µM
[24] = RPMI 5 mM glucose + 10% dialyzed FBS, 0.00234 µM
[25] = RPMI 5 mM glucose + 10% dialyzed FBS, 0.00702 µM
[26] = RPMI 5 mM glucose + 10% dialyzed FBS, 0.0211 µM
[27] = RPMI 5 mM glucose + 10% dialyzed FBS, 0.0632 µM
[28] = RPMI 5 mM glucose + 10% dialyzed FBS, 0.19 µM
[29] = RPMI 5 mM glucose + 10% dialyzed FBS, 0.569 µM
[30] = RPMI 5 mM glucose + 10% dialyzed FBS, 1.71 µM
[31] = RPMI 5 mM glucose + 10% dialyzed FBS, 5.12 µM
[32] = RPMI 5 mM glucose + 10% dialyzed FBS, 15.4 µM
[33] = RPMI 5 mM glucose + 10% dialyzed FBS, 46.1 µM

SMILES | cell viability [1] | cell viability [2] | cell viability [3] | cell viability [4] | cell viability [5] | cell viability [6] | cell viability [7] | cell viability [8] | cell viability [9] | cell viability [10] | cell viability [11] | cell viability [12] | cell viability [13] | cell viability [14] | cell viability [15] | cell viability [16] | cell viability [17] | cell viability [18] | cell viability [19] | cell viability [20] | cell viability [21] | cell viability [22] | cell viability [23] | cell viability [24] | cell viability [25] | cell viability [26] | cell viability [27] | cell viability [28] | cell viability [29] | cell viability [30] | cell viability [31] | cell viability [32] | cell viability [33]
CC(C)N(C[C@H]1O[C@@H](n2cnc3c(N)ncnc32)[C@H](O)[C@@H]1O)[C@H]1C[C@@H](CCc2nc3cc(C(C)(C)C)ccc3[nH]2)C1 | 85.1% | 87.1% | 101% | 90.5% | 82% | 95.7% | 96.6% | 100% | 82% | 85.4% | 4.22% | 104% | 124% | 131% | 112% | 115% | 128% | 102% | 36.3% | 19% | 21% | 5.01% | 86.3% | 100% | 105% | 88.2% | 92.8% | 103% | 113% | 100% | 47.6% | 49% | 4.49%
Cc1c(-c2cccc3c(CCCOc4cccc5ccccc45)c(C(=O)O)n(Cc4cccnc4)c23)c(COc2ccc(N3CCN([S+](=O)([O-])N(C)C)CC3)cc2)nn1C | 92.3% | 99.5% | 85.1% | 85.2% | 104% | 82.8% | 83.5% | 97.6% | 81% | 79.2% | 48.3% | 100% | 108% | 86.2% | 129% | 111% | 128% | 112% | 114% | 102% | 95.5% | 54.8% | 107% | 99.1% | 80.5% | 83.2% | 100% | 91.5% | 109% | 96.5% | 77.1% | 70% | 43%
Cc1cc(O)c2c(c1)C(=O)c1cccc(O)c1C2=O | 99.4% | 121% | 126% | 100% | 122% | 133% | 135% | 135% | 116% | 70.5% | 71.6% |  |  |  |  |  |  |  |  |  |  |  | 117% | 111% | 124% | 109% | 137% | 140% | 134% | 110% | 123% | 81.2% | 64.7%
O=C(CCc1ccc(O)cc1)c1c(O)cc(O)cc1O | 74% | 79.7% | 92% | 95.5% | 89.1% | 95.9% | 115% | 94.5% | 57% | 107% | 100% | 80.8% | 102% | 102% | 85.6% | 86.3% | 97.7% | 105% | 99.4% | 40.2% | 105% | 106% | 96.5% | 90.9% | 89.7% | 90% | 83.6% | 105% | 88.1% | 91% | 62.3% | 102% | 102%
Cc1cc(OCCC[S+](C)(=O)[O-])cc(C)c1-c1cccc(COc2ccc3c(c2)OC[C@H]3CC(=O)O)c1 | 104% | 113% | 110% | 104% | 107% | 101% | 96.5% | 99.9% | 98.3% | 112% | 91.1% | 105% | 104% | 105% | 114% | 103% | 91.8% | 106% | 98.4% | 85.7% | 98.6% | 63.1% | 97.7% | 132% | 109% | 118% | 95.5% | 108% | 109% | 105% | 93.1% | 105% | 65%
CC(C)(F)C[C@H](N[C@@H](c1ccc(-c2ccc([S+](C)(=O)[O-])cc2)cc1)C(F)(F)F)C(=O)NC1(C#N)CC1 | 88.3% | 93.8% | 93.1% | 96.1% | 95.9% | 91% | 96.3% | 97.5% | 104% | 95.9% | 91.6% | 90.4% | 116% | 112% | 117% | 114% | 105% | 93.1% | 109% | 96.5% | 90.3% | 85.8% | 105% | 117% | 124% | 107% | 119% | 126% | 108% | 114% | 115% | 123% | 103%
COc1cc(Nc2c(C#N)cnc3cc(OCCCN4CCN(C)CC4)c(OC)cc23)c(Cl)cc1Cl | 87.1% | 96.8% | 114% | 113% | 111% | 95% | 109% | 54.6% | 13% | 5.77% | 6.12% | 72.5% | 68.2% | 75.7% | 74.8% | 73.1% | 84.7% | 68.1% | 44% | 7.02% | 3.9% | 4.3% | 95.9% | 89.4% | 103% | 105% | 96.1% | 98% | 100% | 62.1% | 17.5% | 5.92% | 5.77%
OC1=CC2=C(C=C1)C(=O)\C(=C(O2)\C3=CC(=C(O)C=C3)O)O | 103% | 116% | 104% | 93.6% | 102% | 99.5% | 102% | 104% | 104% | 93.2% | 32.9% | 111% | 113% | 102% | 111% | 117% | 102% | 102% | 97% | 98.2% | 100% | 22.8% | 84.9% | 98.1% | 89.9% | 91.6% | 99.2% | 96.5% | 103% | 88.5% | 85.9% | 75.1% | 20.1%
Cc1ccc([N+](=O)[O-])cc1[S+](=O)([O-])N(C)/N=C/c1cnc2ccc(Br)cn12 | 106% | 118% | 96.1% | 75.7% | 74.5% | 13.9% | 8.58% | 5.5% | 5.52% | 4.94% | 4.47% |  |  |  |  |  |  |  |  |  |  |  | 112% | 99.8% | 92.9% | 95.3% | 77.1% | 19.8% | 6.67% | 5.43% | 4.76% | 4.76% | 3.83%
NC(=O)[C@H]1CCS[C@@H]2C[C@]3(CCCN3C(=O)Cc3ccc(NC(=O)COc4ccc(Cl)cc4Cl)cc3)C(=O)N12 | 96.1% | 101% | 94% | 107% | 104% | 103% | 97.7% | 61.4% | 38% | 28.2% | 31.5% | 105% | 106% | 112% | 107% | 121% | 103% | 85.7% | 18.4% | 16.2% | 19.6% | 10.2% | 115% | 102% | 123% | 120% | 113% | 114% | 117% | 66.6% | 35.1% | 20.8% | 19.9%
OC1=CC=C(C=C1)\C2=C\OC3=C(C(=CC(=C3)O)O)C2=O | 95.4% | 109% | 96.8% | 105% | 108% | 119% | 112% | 79.1% | 105% | 102% | 74.8% | 93.1% | 82.2% | 89.8% | 86% | 91% | 95.7% | 94.2% | 56.6% | 91.9% | 72.7% | 36.2% | 94.5% | 103% | 104% | 102% | 119% | 115% | 115% | 65.1% | 92.6% | 101% | 59%
O=C(CS(=O)Cc1ccco1)NC/C=C\COc1cc(CN2CCCCC2)ccn1 (configuration not stated) | 78.7% | 86.2% | 89.4% | 96.9% | 93.8% | 99.5% | 102% | 96.7% | 102% | 100% | 97.3% | 86% | 91.3% | 90.7% | 87.1% | 96.8% | 95.5% | 107% | 106% | 93.6% | 102% | 103% | 81.5% | 93.7% | 98.4% | 75.9% | 97.1% | 88.4% | 106% | 97.3% | 110% | 99.8% | 93.9%
COc1cc([C@@H](CC(=O)O)c2ccc(C)c(CN3C[C@@H](C)Oc4ccccc4[S+]3(=O)[O-])c2)cc2nnn(C)c12 | 97.2% | 104% | 104% | 108% | 106% | 103% | 108% | 102% | 87% | 88.4% | 70.2% | 115% | 111% | 133% | 134% | 87% | 82.6% | 83.7% | 96.6% | 67.5% | 18.1% | 14.5% | 116% | 116% | 110% | 104% | 104% | 78.5% | 83.2% | 89.7% | 74.3% | 64.4% | 53.9%
CN(C)C1=CC(=CC=C1)C\2=C\3C(=O)N(NC3=C/C(=O)N2C)C4=CC=CC=C4Cl | 98.5% | 105% | 111% | 107% | 102% | 103% | 98.1% | 16.9% | 5.63% | 5.04% | 6.91% |  |  |  |  |  |  |  |  |  |  |  | 109% | 109% | 136% | 116% | 104% | 124% | 95.9% | 7.24% | 5.43% | 6.87% | 7.46%
CCc1cc2c(cc1N1CCC(N3CCOCC3)CC1)C(C)(C)c1[nH]c3cc(C#N)ccc3c1C2=O | 60.6% | 55% | 70.7% | 102% | 122% | 121% | 114% | 99% | 95.6% | 70.2% | 28.1% | 53.8% | 49.4% | 71.1% | 77.1% | 107% | 107% | 103% | 96.7% | 88.3% | 46.7% | 12.8% | 60.3% | 54.3% | 73.8% | 97.7% | 111% | 129% | 103% | 114% | 108% | 70.8% | 20.3%
